Laboratory results: ChEMBL document CHEMBL1201862, “PubChem BioAssay data set” (2004)
Calls of active or inactive are those of the source.

Key:
[1] = target: Lysine-specific demethylase 4C (Homo sapiens, UniProt Q9H3R0); assay: inhibition of JMJD2C H3K9me3 demethylation – biochemical, DELFIA europium, cherry-picked samples, dose response (AID 488835); format: functional
[2] = target: T1, Tyrosine-protein phosphatase non-receptor type 22 (Homo sapiens, UniProt Q9Y2R2); format: functional
T1 sequence (Q9Y2R2 whole entry): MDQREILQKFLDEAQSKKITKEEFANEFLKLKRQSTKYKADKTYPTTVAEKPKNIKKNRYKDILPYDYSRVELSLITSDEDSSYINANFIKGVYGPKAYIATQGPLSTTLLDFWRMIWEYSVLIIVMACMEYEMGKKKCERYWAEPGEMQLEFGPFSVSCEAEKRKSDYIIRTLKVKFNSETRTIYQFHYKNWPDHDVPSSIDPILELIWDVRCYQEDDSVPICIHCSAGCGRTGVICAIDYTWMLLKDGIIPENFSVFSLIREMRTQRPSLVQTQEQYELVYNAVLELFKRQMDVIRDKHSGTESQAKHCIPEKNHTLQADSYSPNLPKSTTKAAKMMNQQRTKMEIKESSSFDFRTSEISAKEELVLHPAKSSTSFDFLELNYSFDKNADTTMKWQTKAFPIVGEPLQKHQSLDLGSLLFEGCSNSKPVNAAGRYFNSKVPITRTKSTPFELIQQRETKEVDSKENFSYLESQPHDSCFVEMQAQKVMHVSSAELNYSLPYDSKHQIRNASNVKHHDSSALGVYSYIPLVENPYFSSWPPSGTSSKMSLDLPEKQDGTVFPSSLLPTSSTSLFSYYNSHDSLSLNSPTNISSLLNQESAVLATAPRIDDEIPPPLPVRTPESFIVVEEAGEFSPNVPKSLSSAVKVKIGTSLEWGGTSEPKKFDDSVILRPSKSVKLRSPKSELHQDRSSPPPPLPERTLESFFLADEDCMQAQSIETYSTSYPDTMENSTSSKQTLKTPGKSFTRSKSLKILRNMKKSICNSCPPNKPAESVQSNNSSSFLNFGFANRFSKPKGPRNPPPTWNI

[3] = target: T2, Tyrosine-protein phosphatase non-receptor type 7 (Homo sapiens, UniProt P35236); format: functional
T2 sequence (P35236 whole entry): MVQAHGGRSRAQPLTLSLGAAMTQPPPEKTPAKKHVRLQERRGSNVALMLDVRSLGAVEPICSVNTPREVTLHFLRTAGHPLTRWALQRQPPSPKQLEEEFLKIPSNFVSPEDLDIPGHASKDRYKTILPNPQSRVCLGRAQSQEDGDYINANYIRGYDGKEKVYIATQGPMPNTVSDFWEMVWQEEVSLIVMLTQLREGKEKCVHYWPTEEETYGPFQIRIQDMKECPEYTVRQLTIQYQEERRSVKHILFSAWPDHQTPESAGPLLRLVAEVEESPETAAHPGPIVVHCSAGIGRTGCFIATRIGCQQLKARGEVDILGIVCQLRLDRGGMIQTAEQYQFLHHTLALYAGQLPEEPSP

[4] = target: T1, Tyrosine-protein phosphatase non-receptor type 22; format: functional; remark: listed apart in the source
[5] = target: T3, Nucleotide-binding oligomerization domain-containing protein 2 (Homo sapiens, UniProt Q9HC29); assay: inhibition of NOD2 signaling – set 2, SAR follow-up (AID 2475); format: functional
T3 sequence (Q9HC29 whole entry, the tested form may be a part): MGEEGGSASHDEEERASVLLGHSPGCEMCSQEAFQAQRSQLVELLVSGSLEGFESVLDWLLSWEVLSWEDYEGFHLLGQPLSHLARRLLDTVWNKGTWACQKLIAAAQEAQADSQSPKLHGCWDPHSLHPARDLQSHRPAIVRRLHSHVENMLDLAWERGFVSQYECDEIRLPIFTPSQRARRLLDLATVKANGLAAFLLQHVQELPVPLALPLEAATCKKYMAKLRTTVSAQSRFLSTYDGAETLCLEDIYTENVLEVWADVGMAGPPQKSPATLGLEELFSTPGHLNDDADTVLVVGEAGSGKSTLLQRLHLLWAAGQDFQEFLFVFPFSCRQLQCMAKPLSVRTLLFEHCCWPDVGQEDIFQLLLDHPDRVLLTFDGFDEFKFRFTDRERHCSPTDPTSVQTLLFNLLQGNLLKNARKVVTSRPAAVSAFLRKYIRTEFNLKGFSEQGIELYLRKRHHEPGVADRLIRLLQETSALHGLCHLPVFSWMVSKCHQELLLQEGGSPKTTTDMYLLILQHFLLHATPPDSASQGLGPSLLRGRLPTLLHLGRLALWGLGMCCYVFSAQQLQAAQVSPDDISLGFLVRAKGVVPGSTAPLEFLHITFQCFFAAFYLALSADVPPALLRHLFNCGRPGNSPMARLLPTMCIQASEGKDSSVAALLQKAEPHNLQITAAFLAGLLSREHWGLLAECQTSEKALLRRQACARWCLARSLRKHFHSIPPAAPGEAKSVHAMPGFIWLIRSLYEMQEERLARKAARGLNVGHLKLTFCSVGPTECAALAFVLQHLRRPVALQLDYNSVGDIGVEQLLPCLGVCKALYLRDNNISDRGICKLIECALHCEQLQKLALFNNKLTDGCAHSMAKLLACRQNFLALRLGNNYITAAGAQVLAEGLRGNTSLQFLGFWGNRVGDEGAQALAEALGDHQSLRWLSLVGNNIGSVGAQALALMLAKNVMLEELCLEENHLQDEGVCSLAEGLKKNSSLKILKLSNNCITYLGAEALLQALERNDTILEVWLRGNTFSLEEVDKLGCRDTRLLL

HEK293 [6] = assay: SAR analysis of compounds that are cytotoxic to HEK293 - Set 2. [Related pubchem assays (depositor defined):AID1575, AID1578, AID1849, AID2001, AID2333, AID2334, AID2335, AID2337, AID2800]; format: functional, cell-based; settings: Homo sapiens
[7] = target: T4, Nucleotide-binding oligomerization domain-containing protein 1 (Homo sapiens, UniProt Q9Y239); assay: SAR analysis of compounds that inhibit NOD1 - Set 3. [Related pubchem assays (depositor defined):AID1566, AID1575, AID1578, AID1849, AID1852, AID2333, AID2335, AID2466]; format: functional
T4 sequence (Q9Y239 whole entry): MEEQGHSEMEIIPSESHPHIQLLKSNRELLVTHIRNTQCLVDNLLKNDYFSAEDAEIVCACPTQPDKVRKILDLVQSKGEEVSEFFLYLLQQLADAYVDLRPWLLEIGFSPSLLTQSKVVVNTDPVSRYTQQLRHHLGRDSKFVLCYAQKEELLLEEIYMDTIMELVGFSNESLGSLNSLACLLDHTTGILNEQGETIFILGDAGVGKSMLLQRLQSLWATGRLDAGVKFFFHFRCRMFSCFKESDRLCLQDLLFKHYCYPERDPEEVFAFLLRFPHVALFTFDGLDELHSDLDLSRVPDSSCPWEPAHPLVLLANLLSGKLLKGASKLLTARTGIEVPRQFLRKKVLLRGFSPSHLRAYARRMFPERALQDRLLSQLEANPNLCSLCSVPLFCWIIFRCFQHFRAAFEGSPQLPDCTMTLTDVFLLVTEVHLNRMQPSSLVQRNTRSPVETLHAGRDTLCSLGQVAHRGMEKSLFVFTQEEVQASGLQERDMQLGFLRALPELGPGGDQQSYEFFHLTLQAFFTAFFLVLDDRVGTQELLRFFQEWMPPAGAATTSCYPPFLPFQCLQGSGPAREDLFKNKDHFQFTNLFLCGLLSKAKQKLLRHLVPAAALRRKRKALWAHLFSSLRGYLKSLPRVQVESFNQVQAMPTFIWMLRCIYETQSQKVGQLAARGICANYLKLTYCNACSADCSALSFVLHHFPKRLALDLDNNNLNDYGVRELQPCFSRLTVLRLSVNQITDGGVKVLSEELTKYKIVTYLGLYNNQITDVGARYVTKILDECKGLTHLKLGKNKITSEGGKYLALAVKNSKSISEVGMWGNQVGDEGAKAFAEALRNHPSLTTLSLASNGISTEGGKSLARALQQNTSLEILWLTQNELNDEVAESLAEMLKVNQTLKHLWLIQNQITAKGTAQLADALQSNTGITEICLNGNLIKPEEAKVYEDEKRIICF

[8] = target: T4, Nucleotide-binding oligomerization domain-containing protein 1; assay: SAR analysis of NF-kappaB dependent luciferase using DAP as an inducer - Set 2. [Related pubchem assays (depositor defined):AID1566, AID1575, AID1578, AID1579, AID1849, AID1852, AID2264]; format: functional
[9] = target: T3, Nucleotide-binding oligomerization domain-containing protein 2; assay: inhibition of MDP-driven NOD2 NF-kB reporter – cell-based, set 3, SAR follow-up (AID 2799); format: functional
Tumor necrosis factor = Tumor necrosis factor (Homo sapiens, UniProt P01375); assay: analog potency on TNFa NF-kB signaling – cell-based, set 3, SAR follow-up (AID 2801); format: functional
Sequence of Tumor necrosis factor (P01375 whole entry, the tested form may be a part): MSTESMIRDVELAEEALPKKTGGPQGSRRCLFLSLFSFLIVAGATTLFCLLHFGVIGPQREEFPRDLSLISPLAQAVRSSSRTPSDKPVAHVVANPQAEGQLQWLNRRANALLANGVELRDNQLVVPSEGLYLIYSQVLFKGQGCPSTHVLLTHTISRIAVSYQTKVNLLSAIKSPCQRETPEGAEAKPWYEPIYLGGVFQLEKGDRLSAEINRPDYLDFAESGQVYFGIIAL

[10] = target: T4, Nucleotide-binding oligomerization domain-containing protein 1; assay: SAR analysis of compounds that inhibit NOD1 - Set 2. [Related pubchem assays (depositor defined):AID1566, AID1575, AID1578, AID1849, AID1852, AID2333, AID2335, AID2798]; format: functional
Interleukin-8 [11] = target: T5, Interleukin-8 (Homo sapiens, UniProt P10145); assay: SAR analysis of GM-Tri-DAP induced IL-8 secretion in MCF-7/NOD1 cells - Set 2. [Related pubchem assays (depositor defined):AID1575, AID1578, AID2333]; format: functional, cell-based
T5 sequence (P10145 whole entry): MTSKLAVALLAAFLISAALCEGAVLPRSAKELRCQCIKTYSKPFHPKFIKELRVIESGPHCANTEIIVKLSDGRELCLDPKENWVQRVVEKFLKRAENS

Interleukin-8 [12] = target: T5, Interleukin-8; assay: SAR analysis of Tumor necrosis factor alpha (TNF-alpha) induced IL-8 secretion in MCF-7/NOD1 cells - Set 2. [Related pubchem assays (depositor defined):AID1575, AID2250, AID2260]; format: functional, cell-based
HEK293 [13] = assay: SAR analysis of compounds that are cytotoxic to HEK293 - Set 3. [Related pubchem assays (depositor defined):AID1575, AID1578, AID1848, AID1849, AID2001, AID2333, AID2334, AID2335, AID2337, AID2469]; format: functional, cell-based; settings: Homo sapiens

Sequence of Lysine-specific demethylase 4C (Q9H3R0 whole entry): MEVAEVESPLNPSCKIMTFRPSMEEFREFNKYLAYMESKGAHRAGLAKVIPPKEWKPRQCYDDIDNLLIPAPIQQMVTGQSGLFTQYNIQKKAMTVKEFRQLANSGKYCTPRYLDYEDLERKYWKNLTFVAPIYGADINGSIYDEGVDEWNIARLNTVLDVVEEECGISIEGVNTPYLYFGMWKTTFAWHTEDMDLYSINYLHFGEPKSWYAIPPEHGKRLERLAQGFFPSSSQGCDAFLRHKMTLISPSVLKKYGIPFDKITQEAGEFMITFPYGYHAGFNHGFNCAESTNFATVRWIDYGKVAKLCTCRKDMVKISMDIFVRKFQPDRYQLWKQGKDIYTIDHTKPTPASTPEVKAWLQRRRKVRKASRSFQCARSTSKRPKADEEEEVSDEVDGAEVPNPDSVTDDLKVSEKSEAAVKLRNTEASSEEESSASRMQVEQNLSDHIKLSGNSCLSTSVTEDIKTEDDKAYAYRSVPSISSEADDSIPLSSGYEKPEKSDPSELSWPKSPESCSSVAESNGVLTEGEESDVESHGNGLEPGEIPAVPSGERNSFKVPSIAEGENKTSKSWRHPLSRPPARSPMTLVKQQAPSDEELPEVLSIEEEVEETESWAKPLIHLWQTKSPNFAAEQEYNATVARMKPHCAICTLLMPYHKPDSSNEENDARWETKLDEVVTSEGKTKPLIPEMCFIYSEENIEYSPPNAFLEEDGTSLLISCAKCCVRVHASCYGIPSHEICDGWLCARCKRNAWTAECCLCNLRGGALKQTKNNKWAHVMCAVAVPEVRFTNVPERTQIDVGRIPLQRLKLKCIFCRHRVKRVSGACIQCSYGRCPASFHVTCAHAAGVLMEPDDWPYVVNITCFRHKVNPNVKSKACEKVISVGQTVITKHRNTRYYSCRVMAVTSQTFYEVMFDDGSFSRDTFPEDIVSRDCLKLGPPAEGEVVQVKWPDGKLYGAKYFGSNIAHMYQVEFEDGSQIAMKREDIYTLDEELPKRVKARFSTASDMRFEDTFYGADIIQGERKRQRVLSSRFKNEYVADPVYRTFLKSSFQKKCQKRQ

In the case of `Nc1c(O)nc(O)nc1C(=O)OCC(=O)Nc1ccc(Cl)cc1[N+](=O)[O-]`, the AC50 [1] is reported as 8.98 µM (active).
For `Cc1cccc(-n2cc(CN3CCN(C(=O)c4nc[nH]n4)CC3)c(-c3cccc(F)c3)n2)c1`, the IC50 [2] was > 79.4 µM (inactive), the IC50 [3] was > 79.4 µM (inactive) and the IC50 [4] was > 79.4 µM (inactive).
For `COCCn1c(SCCCc2ccccc2)nc2c1c(=O)[nH]c(=O)n2C`, the IC50 [5] was > 20 µM (inactive), the IC50 (HEK293 [6]) was > 20 µM (inactive) and the IC50 [7] was > 20 µM (inactive). The IC50 [8] was > 25 µM (inactive), the IC50 [9] was > 20 µM (inactive) and the IC50 (Tumor necrosis factor) was > 20 µM (inactive). For the same compound, the IC50 [10] was > 20 µM (inactive), the IC50 (Interleukin-8 [11]) was > 25 µM (inactive) and the IC50 (Interleukin-8 [12]) was > 25 µM (inactive). The IC50 (HEK293 [13]) was > 20 µM (inactive).
